Test results taken from US20030157182A1, “Pharmaceutical preparations and their manufacture” (priority 2000, published 2003).

Experiments:
[1] = Particle size distribution by volume, Malvern Mastersizer 2000; type: physicochemical; settings: for d(0.5): volume median diameter, μm
Description: (§1) Using the Malvern Mastersizer 2000 we have examined the particle size by volume of a range of materials. The Mastersizer 2000 utilises a log-normal scale for description of particle sizes. We have then examined the data statistically to determine normalized Kurtosis by copying the particle size data into Microsoft Excel and performing the “KURT” function according to the method given in Example 1. Kurtosis values for those materials are given in Table 1 along with volume median diameters. A mesokurtic normal distribution has a normalized Kurtosis value of zero.
(i) The active particles were suspended (using stirring and sonication) in cyclohexane with 0.1% lecithin. Sufficient active particles were used to ensure the necessary obscuration;
(ii) The suspension was placed in the wet cell of the Malvern Mastersizer 2000 and the particle size distribution was measured using an appropriate lens system;
(iii) The results were analysed using the proprietary software of the Mastersizer 2000 to produce the size distribution given in Table 2.

[2] = Normalised Kurtosis of the particle size distribution (Microsoft Excel KURT function on Mastersizer classes); type: physicochemical; settings: for Normalised Kurtosis: particle size by volume, Mastersizer 2000 classes, 0 = mesokurtic normal distribution; for normalized Kurtosis: positive = narrow size distribution
Description: The normalized Kurtosis is defined in formula (2) above and can be derived for a given particle size distribution by using any of a number of widely available statistical software packages, for example, Microsoft Excel.
A large number of data points is required to provide an accurate analysis of the Kurtosis of a particle size distribution. Indeed a true Kurtosis value would require the exact size of every particle in a distribution.
as §1
(iv) The results shown in Table 2 were analysed using the KURT function of Microsoft Excel which gave the normalized Kurtosis value of 6.93.

[3] = listed as paracetamol material according to the invention
[4] = listed as commercial grade of paracetamol

| volume median diameter / volume median particle size ([1]; listed as milled paracetamol) [μm] | d(0.5) [1] [µm] | Normalised Kurtosis [2] | normalized Kurtosis ([2]; listed as milled paracetamol) | polydispersity of particle size distribution ([1]; FIG. 2, compared to the Sigma paracetamol starting material) | volume median diameter / volume median particle size [1, 3] [μm] | normalized Kurtosis [2] | normalized Kurtosis [2, 3] | volume median diameter / volume median particle size [1, 4] [μm] | normalized Kurtosis [2, 4] | SMILES |
| --- | --- | --- | --- | --- | --- | --- | --- | --- | --- | --- |
| 12 | 12 | −1.10 | −1.1 |  |  |  |  |  |  | CC(=O)Nc1ccc(O)cc1 [Paracetamol Milled Sigma, Paracetamol] |
|  | 21 | 6.93 |  | much reduced polydispersity | 12 | 6.93 | 6.9 |  |  | CC(=O)Nc1ccc(O)cc1 [Paracetamol from Example 1, Paracetamol] |
|  | 19 | −0.43 |  |  |  |  |  | 19 | −0.43 | CC(=O)Nc1ccc(O)cc1 [Sigma Paracetamol, Paracetamol] |
